This note sets out measurements from patent publication US20070148666A1, “Diagnosis and Treatment of Brain Cancer” (priority 2005, published 2007).

Holding throughout (format): cell-based, human
For series [1], the system named is D283 medulloblastoma cells. In words: Cell viability of D283 cells treated with TSA (MTT assay, washout experiments). On the procedure: The inventors tested cell viability of D283 medulloblastoma cells treated with increasing doses of the HDAC inhibitor TSA (FIG. 1A). They also tested cell viability was measured by an MTT assay.
The inventors also determined the minimum time of TSA exposure needed to induce cell death (FIG. 1B). D283 cells were exposed to TSA for various time points and the media replaced for an additional 24 h prior to assaying for cell viability.
To identify genes regulated by changes in histone H3 K9 acetylation status, the inventors first determined the optimal dose and timing for treating D283 medulloblastoma cells with TSA. The D283 cell line was chosen since it is widely used as a cell model of medulloblastoma and is well characterized. […] For microarray studies, the inventors treated D283 cells with 0.2 μM TSA for 9 hours. […] To confirm the microarray analysis, real-time quantitative PCR (qPCR) was performed on nine randomly selected genes (FIG. 12A).
On the technique in general: Tetrazolium assays rely on reduction of a dye to a coloured formazan, in cell work by metabolically active cells.

In series [2] the test system is D283 cells. In words: FACS analysis of TUNEL-stained D283 cells (apoptosis). To be noted: 12 hours, TUNEL FACS (DMSO 13%). The method, then: FIGS. 11A-11C. Effects of TSA on D283 cells. (FIG. 11A) Dose response curves of cell viability for D283 medulloblastoma cells treated with increasing doses of the HDAC inhibitor TSA. (FIG. 11B) FACs analysis of TUNEL-stained (BD Biosciences) D283 cells treated with TSA for 12 hours. FACs dot plots of cells with DMSO (i), and cells treated with 0.02 μM and 0.2 μM TSA (ii and iii).
For orientation: Flow cytometry measures light scatter and fluorescence of single cells or particles in a stream.

The test system of series [3] is D283 cells. In words: Whole genome expression microarray of TSA treated D283 cells. To be noted: 0.2 μM TSA, 9 hours, q<0.001. The method, then:
(§1) RNA from vehicle and TSA treated D283 cells was reverse-transcribed and hybridized to the ABI 1700 Human Genome Expression Microarray containing 33,202 gene-specific 60-mer oligonucleotide probes. Data was quantile normalized and t-test was applied to each gene for statistical significance. Differential gene expression was quantified using the Storey q-value method and data visualized using Spotfire software.
(§2) The D283 cell line was cultured with either 0.2 μM TSA or DMSO for 9 hours to generate gene expression profiles in response to TSA. Total RNA was extracted from treated cells using Trizol (Invitrogen, Carlsbad, Calif.). RNA was further purified using the RNeasy kit (QIAGEN, Valencia, Calif.) per manufacturer's protocol and purity of RNA was determined by the Agilent Bioanalyzer. 2 μg of total RNA was reverse-transcribed with the Chemiluminescent RT-IVT Labeling Kit (Applied Biosystems, Foster City, Calif.) and hybridized to a 60-mer whole genome oligonucleotide microarray (Applied Biosystems, Foster City, Calif.) containing 33,202 probes representing 29,098 genes per manufacturer's protocol. A total of three microarray hybridizations, one for each biological replicate, were performed per treatment. […] Differential gene expression was quantified using Storey q-value method (Storey and Tibshirani, 2003, Proc Natl Acad Sci USA 100, 9440-9445). […]

The subject of a further series is sFRP 1. In words: Expression microarray, TSA fold increase of sFRP1. The settings on record: D283 medulloblastoma cells.
From the text: as §1
(§3) The inventors performed studies that determined that antagonists of Wnt signalling are epigenetically silenced in medulloblastoma.
as §2, with “protocol.” for “protocol. A total of three microarray hybridizations, one for each biological replicate, were performed per treatment.”

Another series has as its system WIF 1. Put plainly: Expression microarray, TSA fold increase of WIF1. The settings on record: D283 medulloblastoma cells.
From the text: as §1, §3
as §2, with “protocol.” for “protocol. A total of three microarray hybridizations, one for each biological replicate, were performed per treatment.”

The subject of a further series is Dkk 1. Put plainly: Expression microarray, TSA fold increase of Dkk1. To be noted: D283 medulloblastoma cells.
From the text: as §1, §3
as §2, with “protocol.” for “protocol. A total of three microarray hybridizations, one for each biological replicate, were performed per treatment.”

The next series concerns histone acetylation. Put plainly: Western blot analysis of histone acetylation. To be noted: D283 cells, 9 hours of TSA exposure. In general terms: Immunoblotting shows a protein as a band on a membrane.
The test system of another series is DKK1. Put plainly: qPCR of DKK1 expression after TSA. On the procedure:
The inventors identified genes by means of the microarray analysis. The results were verified by real time PCR (ABI) in D283 cells using Assay on demand gene expression reagents (ABI) for selected genes. Human Gus was used as the normalizer gene. Real-time PCR was performed on ABI PRISM 7900 HT detection system. Validated genes were assayed in normal brain and medulloblastoma patient samples.
(§4) RNA was isolated from cells and tissues with Triazol (Invitrogen, Carlsbad, Calif.). Real-time PCR was performed on the ABI PRISM 7900 HT detection system using Taq man reagents (Applied Biosystems, Foster City, Calif.) per the manufacturer's recommendations. Gene expression was determined with Assay on Demand gene expression reagents (Applied Biosystems, Foster City, Calif.). All assays were done in triplicate.

For another series, the system named is p21. Put plainly: qPCR of p21 mRNA after TSA. The settings on record: TSA 0.2 μM, D283, Daoy and MB 100 primary cells, n=3. On the procedure: as §4
The next series concerns RASSF1. Put plainly: qPCR of RASSF1 mRNA after TSA. To be noted: TSA 0.2 μM, D283, Daoy and MB 100 primary cells, n=3. The method, then:
as §4

The test system of series [4] is D283 cells. In words: Colony formation assay on soft agar. To be noted: transfected D283 cells, after 3 weeks, p<0.001. The method, then: Wnt inhibitors were cloned into pcDNA3.1, D283 cells transfected and plated on agar. Colonies selected in G418. Total number of colonies formed on agar was counted for three separate experiments (FIG. 8).
Colony formation assays were performed on soft agar. Cells were plated at 1.5×10^5 per well using 6-well plates and transfected with pcDNA3.1D/V5-His-TOPO/DKK1, pcDNA3.1D/N5-His-TOPO/lacZ or pcDNA3.1D/V5-His-TOPO with no insert (mock control) using Trans It-Neural transfection reagents (Mirus). The cells were selected in G418 (1 mg/ml) supplemented media at 24 hr post transfection. The cells were simultaneously harvested to confirm their expression at the mRNA level by real-time PCR. G418 resistant cells were maintained for two weeks in culture. Cells were re-suspended in media containing 0.3% agarose and were overlaid on 0.6% agarose. 0.5 ml media was added to the plates every four days and colony formation was quantified after fixation and staining with methylene blue after 3 weeks.

As a reminder, the cell viability is a read-out of living cells in per cent, often relative to untreated cells. A high value points to better survival. Consider `CC(/C=C/C(=O)NO)=C\[C@@H](C)C(=O)c1ccc(N(C)C)cc1` [TSA, Trichostatin A], for which the cell viability in series [1] (0.1 μM TSA, 24 h, MTT assay) was 50%; in series [1] (0.2 μM TSA, 9 hours), 100%; in series [1] (0.2 μm TSA, 24 h, MTT assay), 30%. The “cells committed to cell death by 24 hours” value in series [1] (0.2 μM TSA for 9 hours, washout) is reported as 85%. Moreover, the surviving cells in series [1] (TSA exposure between 6 and 9 h, media replaced for additional 24 h) was 80%. Moreover, the apoptotic cells is 31% with D283 cells [2] (0.02 μM TSA) and 79% in the series with D283 cells [2] (0.2 μM TSA). The “number of genes induced at least 2-fold” value in the series on D283 cells [3] is recorded as 714. In addition, the “TSA fold increase of sFRP1” value in the series with sFRP 1 is on record as 2.9 fold. Moreover, the “TSA fold increase of WIF1” value with WIF 1 turned out to be 2.5 fold. For the same compound, the “TSA fold increase of Dkk1” value in the series with Dkk 1 was found to be 1.4 fold. The histone acetylation result with histone acetylation is listed as “robust histone acetylation”. For the same compound, the DKK1 expression result with DKK1 (D283 cells, TSA 0.2 μm, qPCR) was “potently induces DKK1 expression”; in the series with DKK1 (MB47, MB100, MB187 primary cells and D283, RT-PCR), “increased on TSA treatment”. Further, the “p21 mRNA” value in the series on p21 was “induction”. Also, the “RASSF1 mRNA” value in the series on RASSF1 is given as “induction”.

In the case of DKK1, the “fewer neo-resistant colonies than controls” value in the series with D283 cells [4] is listed as 60%.
